From patent EP0855398B1, “SESQUITERPENE DERIVATIVES HAVING ANTIVIRAL ACTIVITY” (SHIONOGI & CO., LTD., priority 1995, dated 1997)
Converted amounts (≈) assume the structure as drawn.

Tests used:
influenza A and B = conditions: administered orally or intraperitoneally; cited from earlier work
MDBK cells = conditions: Cell: MDBK, no virus; concentration at which 50% of the cells are killed; 4320 min
[1] = tested on: Influenza virus A/WSN/33 (H1N1); assay: microbe, parasite or virus in culture; type: cell-based; conditions: viral strain: Influenza virus A/WSN/33 (H1N1); Cell: MDBK; […]; 3 days
A/91/N796 (H3N2) = assay: Anti-viral activities against subtypes of influenza A and B (plaque number); type: cell-based; conditions: Influenza A virus, 72 h; (4): A/91/N796 (H3N2); Cell: MDCK; number of plaques decreases by 50%; 3 days; read-out: IC50
B/91N759 = assay: as above; type: cell-based; conditions: Influenza B virus, 72 h; (5): B/91N759; Cell: MDCK; number of plaques decreases by 50%; 3 days; read-out: IC50
A/Kumamoto/5/67 (H2N2) = assay: microbe, parasite or virus in culture; type: cell-based; conditions: Influenza A virus, H2N2, MDCK, 72 h
[2] = Cytotoxicity for MDCK cells; type: cell-based; conditions: dog, Cell: MDCK, no virus
Protocol: As in the measurement of anti-viral activity, samples were added to the cells, and incubated with 50 µl of culture medium instead of the viral dilution. The results are expressed as CC50 which is defined as the concentration of the compound at which 50% of the cells are killed due to the toxicity of the compound.
MDCK cells (derived from dog kidney) were cultured on 12-well plates using E-MEM supplemented by 10% fetal bovine serum. To each well was added 250 µl each of a viral dilution prepared by 10-fold serial dilution with E-MEM, followed by incubation for one hour under 5% CO2 at 37 °C. After removal of the viral solution, one ml of E-MEM containing 0.8% agarose, 0.5% bovine serum albumin and 2 µg/ml trypsin, and an appropriately diluted test compound was added. The plate was inverted, and incubated for 3 days under 5% CO2 at 37 °C. The number of plaques formed was counted, and the IC50 value, which is the concentration of the compound at which the number of plaques decreases by 50% compared to that of control which lacks the test compound, was determined. As in the above section 2), CC50 values for MDCK cells were determined.

A/WSN/33 (H1N1) = assay: Anti-viral activities against subtypes of influenza A and B (plaque number); type: cell-based; conditions: Influenza A virus, 72 h; (1): A/WSN/33 (H1N1); Cell: MDCK; number of plaques decreases by 50%; 3 days; read-out: IC50
A/Osaka/5/70 (H3N2) = assay: as above; type: cell-based; conditions: Influenza A virus, 72 h; (3): A/Osaka/5/70 (H3N2); Cell: MDCK; number of plaques decreases by 50%; 3 days; read-out: IC50

CC(=O)N[C@H]1[C@H]([C@H](O)[C@H](O)CO)OC(C(=O)O)=C[C@@H]1NC(=N)N [4-guanidino-Neu5Ac2en]
activity against influenza A and B (influenza A and B): has not a satisfactory activity

CCOC(=O)C=CC(=O)Nc1ccc(S(=O)(=O)O[C@H]2C[C@@]34Oc5c(c(O)cc6c5CNC6=O)C[C@]3(C)[C@@H](C)CC[C@H]4C(C)(C)[C@H]2O)cc1 [Compound (50f), (6aR, 7S, 9aS, 11R, 12S, 13aS)-12-[4-(3-ethoxycarbonyl-1-oxo-2-propenyl)amino] phenylsulfonyloxy-2,3,6,6a, 7,8,9,9a, 10, 11, 12, 13-dodecahydro-5, 11-dihydroxy-6a, 7, 10, 10-tetramethyl-3-oxo-1H-benzo[8,8a][1]benzopyrano[2,3-e]isoindole]
CC50 (MDBK cells): 5 µg/mL (≈ 7.32 µM) | IC50 [1]: 0.01 µg/mL (≈ 0.0146 µM)

CC(=O)O[C@@H]1C(=O)C[C@@]23Oc4c(c(O)cc5c4CNC5=O)C[C@]2(C)[C@@H](C)CC[C@H]3C1(C)C [Compound (53a), (6aR, 7S, 9aS, 11S, 13aS)-11-acetoxy-2,3,6,6a, 7,8,9,9a, 10 11, 12, 13-dodecahydro-5-hydroxy-6a, 7, 10, 10-tetramethyl-3,12-dioxo-1H-benzo[8,8a][1]benzopyrano[2,3-e]isoindole]
CC50 (MDBK cells): >10 µg/mL | IC50 [1]: 0.04 to 0.08 µg/mL

C[C@H]1CC[C@H]2C(C)(C)C(=O)CC[C@]23Oc2c(c(O)cc4c2C(=O)NC4=O)C[C@]13C [SQ-02-S5-OX1(11)]
IC50 (A/91/N796 (H3N2)): 1 µg/mL (≈ 2.52 µM) | IC50 (B/91N759): 0.1 µg/mL (≈ 0.252 µM) | IC50 (A/Kumamoto/5/67 (H2N2)): 0.01 to 0.1 µg/mL (≈ 0.0252 to 0.252 µM) | CC50 [2]: 25 to 30 µg/mL (≈ 62.9 to 75.5 µM) | IC50 (A/WSN/33 (H1N1)): 0.001 to 0.01 µg/mL (≈ 0.00252 to 0.0252 µM) | IC50 (A/Osaka/5/70 (H3N2)): 0.1 to 1 µg/mL (≈ 0.252 to 2.52 µM)

C[C@H]1CC[C@H]2C(C)(C)C(=O)CC[C@]23Oc2c(c(O)cc4c2CNC4=O)C[C@]13C [SQ-02-S5-OX2(12)]
IC50 (A/91/N796 (H3N2)): 1 µg/mL (≈ 2.61 µM) | IC50 (B/91N759): 0.1 to 1 µg/mL (≈ 0.261 to 2.61 µM) | IC50 (A/Kumamoto/5/67 (H2N2)): 0.01 to 0.1 µg/mL (≈ 0.0261 to 0.261 µM) | CC50 [2]: 25 to 50 µg/mL (≈ 65.2 to 130 µM) | IC50 (A/WSN/33 (H1N1)): 0.001 to 0.01 µg/mL (≈ 0.00261 to 0.0261 µM) | IC50 (A/Osaka/5/70 (H3N2)): 1 to 10 µg/mL (≈ 2.61 to 26.1 µM)
